Patent US12281084B2, “Acetyl-CoA synthetase 2 (ACSS2) inhibitors and methods using same” (The Wistar Institute, priority 2019, dated 2025)
“Also recorded” adds a separate entry of the source.

Legend:
SKBr3 cells = assay: 13C2-acetate tracing in SKBr3 cells; type: cell-based, human; settings: 100 μM 13C2-acetate, 24 hr, N10 or H1 (FIG. 2B)
Experimental: (§1) All metabolomic experiments were performed in serum-like modified Eagle's medium (SMEM). SMEM contains 54 different nutrients that are found in the bloodstream at concentrations that are physiologically relevant to humans. SMEM was supplemented with 10% or 1% fetal bovine serum (FBS; Life Technologies). Cells were grown in normoxia (atmospheric oxygen) or hypoxia (1% oxygen) while being incubated in uniformly labeled ^13C2-acetate (0.100 mM; Cambridge Isotope Laboratories). Lengths of incubation are described in the figure legends. For extraction of metabolites from cultured cells, SMEM medium was aspirated and cells were washed once in ice-cold PBS. Metabolites were extracted by adding a solution of LC-MS grade methanol/acetonitrile/water (5:3:2) to the well. […]
(§2) LC-MS analysis was performed on a Q Exactive Hybrid Quadrupole-Orbitrap HF-X MS (ThermoFisher Scientific) equipped with a HESI II probe and coupled to a Vanquish Horizon UHPLC system (ThermoFisher Scientific). […] Samples were analyzed in full MS scan with polarity switching at scan range 65 to 975 m/z; 120,000 resolution; automated gain control (AGC) target of 1E6; and maximum injection time (max IT) of 100 milliseconds. Identification and quantitation of metabolites was performed using an annotated compound library and TraceFinder 4.1 software. […]

MDA-MB-468 cells = assay: 13C2-acetate tracing in MDA-MB-468 cells; type: cell-based, human; settings: MDA-MB-468 cells (FIG. 11D)
Experimental: as §1, §2

Brpkp110 tumors = assay: Brpkp110 tumor xenograft growth in NSG mice; type: in vivo, mouse; settings: daily intraperitoneal injection for two weeks, 100 mg/kg (FIG. 5E)
Experimental: For BT474 mouse xenograft studies 5-6 week old female NSG […] were anesthetized and one 17β-estradiol 60 day release pellet (Innovative Research of America Cat. No. SE-121) was injected subcutaneously via 10 gauge precision trochar into the lateral side of the neck between the ear and shoulder. 24 hours later 10^5 BT474 luciferase positive cells in 100 μl PBS:matrigel (growth factor reduced) were injected subcutaneously into the hind limb. For A7C11 and Brpkp110 xenografts, 5×10^5 cells in 100 μl PBS:Matrigel (growth factor reduced Corning Cat. No. 356231) were subcutaneously injected into the hindlimb of 5-6 week old female NSG mice […]. Following tumor establishment in all groups, mice were randomized and treated intraperitoneally (IP) daily with vehicle (10% DMSO, 10% absolute ethanol, 20% solutol, 60% water containing 0.5% Tween20) or 100 mg/kg VY-3-135 as indicated in the figure legend. Tumors were measured thrice weekly via caliper measurement and tumor volume calculated as (L×W^2)/2 (where L is the longer of the 2 measurements). At the study conclusion all tumors were resected and processed fresh or flash frozen in liquid nitrogen and stored at −80° C. for downstream analysis.
Tumor bearing mice were given daily intraperitoneal injection of VY-3-135 for two weeks. […]

BT474 tumors [1] = assay: QuantSeq 3' mRNA sequencing of BT474 tumor tissue; type: in vivo, mouse; settings: vehicle vs treated mice
Experimental: QuantSeq 3′ mRNA sequencing of BT474 tumor tissue from vehicle and VY-3-135 treated mice was performed. Similar to in vitro results in FIG. 3, the effects of VY-3-135 on gene transcription in vivo were minimal. […] Furthermore, of the 248 differentially regulated genes only 7 changed by more than 2-fold and none by more than 2.5-fold (FIGS. 14A-14B).

BT474 tumors [2] = assay: In vivo 13C2-acetate tracing in BT474 tumors; set-up: species or system mouse
Experimental: as §1, with “well. Plates were incubated at 4° C. for 5 minutes on a rocker and then the extraction solution was collected. The metabolite extract was cleared by centrifugation at 15,000×g for 10 minutes at 4° C. Supernatants were transferred to LC-MS silanized glass vials with PTFE caps and either run immediately on the LC-MS or stored at −80° C.” for “well.”
as §2
On-target activity of VY-3-135 in the tumor was probed. […] Tumor lipid extracts were saponified and the resulting fatty acids were analyzed by LC-MS. Likewise, polar metabolites were extracted from matching tumor samples and analyzed by LC-MS. […] Isotopologs ≥M+10 were not detected in tumors from VY-3-135 treated mice.

In the case of CCn1c(C(O)(c2ccccc2)c2ccccc2)nc2ccc(C(=O)NC[C@@H](C)O)cc21 [VY-3-135, (R)-1-ethyl-2-(hydroxydiphenylmethyl)-N-(2-hydroxypropyl)-1H-benzo[d]imidazole-6-carboxamide], the “fatty acid synthesis from acetate (13C2-acetate labeling of palmitate)” value (SKBr3 cells) is reported as “completely blocked fatty acid synthesis from acetate”, the “incorporation of 13C2-acetate into UDP-GlcNAc” value (MDA-MB-468 cells) is reported as “able to block incorporation of ^13C2-acetate into UDP-GlcNAc to nearly the levels of unlabeled cells” and the Brpkp110 tumor growth (Brpkp110 tumors) is reported as “causes a significant decrease in Brpkp110 tumor growth; also recorded: caused significant reduction in Brpkp110 tumor growth”. For the same compound, the “effects on gene transcription in vivo” value (BT474 tumors [1]) was “minimal”, the “13C2-acetate labeling of citrate in tumors” value (BT474 tumors [2]; BT474 tumors (FIG. 6D)) was “no effect was observed” and the “palmitate isotopologs ≥M+10 in tumors” value (BT474 tumors [2]; BT474 tumors from treated mice) was “not detected”. For the same compound, the “13C labeling of palmitate in tumors” value (BT474 tumors [2]; BT474 tumors, 13C2-acetate in drinking water 48 hours (FIG. 6C)) was “caused a significant decrease in the ^13C labeling of palmitate”.
